Reference: US20030078251A1, “Benzoxazepinones and their use as squalene synthase inhibitors” (priority 2000, published 2003)

SMILES	melting point
COc1cccc([C@H]2O[C@H](CC(=O)Nc3ccc4oc(C(=O)O)c(C)c4c3)C(=O)N(CC(C)(C)CO)c3ccc(Cl)cc32)c1OC [Example 160, 5-[[[(3R,5S)-7-Chloro-5-(2,3-dimethoxyphenyl)-1-(3-hydroxy-2,2-dimethylpropyl)-2-oxo-1,2,3,5-tetrahydro-4,1-benzoxazepin-3-yl]acetyl]amino]-3-methyl-1-benzofuran-2-carboxylic acid]	175 to 176.5 °C
COc1cccc([C@H]2O[C@H](CC(=O)Nc3ncc(C(=O)O)s3)C(=O)N(CC(C)(C)CO)c3ccc(Cl)cc32)c1OC [Example 141, 2-[[[(3R,5S)-7-Chloro-5-(2,3-dimethoxyphenyl)-1-(3-hydroxy-2,2-dimethylpropyl)-2-oxo-1,2,3,5-tetrahydro-4,1-benzoxazepin-3-yl]acetyl]amino]-1,3-thiazole-5-carboxylic acid]	241 to 242.2 °C
COc1cccc([C@H]2O[C@H](CC(=O)NCCCOc3ccc(CC(=O)O)cc3)C(=O)N(CC(C)(C)COC(C)=O)c3ccc(Cl)cc32)c1OC [Example 97, 4-[3-[[(3R,5S)-1-(3-Acetoxy-2,2-dimethylpropyl)-7-chloro-5-(2,3-dimethoxyphenyl)-2-oxo-1,2,3,5-tetrahydro-4,1-benzoxazepin-3-yl]acetyl]aminopropyloxy]phenylacetic acid]	163 to 164 °C
COc1cccc([C@H]2O[C@H](CC(=O)NCc3ccc(C(=O)O)cc3)C(=O)N(CC(C)(C)CO)c3ccc(Cl)cc32)c1OC [Example 75, 4-[[(3R,5S)-7-Chloro-5-(2,3-dimethoxyphenyl)-1-(3-hydroxy-2,2-dimethylpropyl)-2-oxo-1,2,3,5-tetrahydro-4,1-benzoxazepin-3-yl]acetyl]aminomethylbenzoic acid]	143 to 144 °C
COc1cccc([C@H]2O[C@H](CC(=O)Nc3cc(C)c4oc(C(=O)O)cc4c3)C(=O)N(CC(C)(C)CO)c3ccc(Cl)cc32)c1OC [Example 161, 5-[[[(3R,5S)-7-Chloro-5-(2,3-dimethoxyphenyl)-1-(3-hydroxy-2,2-dimethylpropyl)-2-oxo-1,2,3,5-tetrahydro-4,1-benzoxazepin-3-yl]acetyl]amino]-7-methyl-1-benzofuran-2-carboxylic acid]	180.7 to 182 °C
COc1cccc([C@H]2O[C@H](CC(=O)Nc3ccc4oc(C(=O)O)c(OC(C)C)c4c3)C(=O)N(CC(C)(C)CO)c3ccc(Cl)cc32)c1OC [Example 156, 5-[[[(3R,5S)-7-chloro-5-(2,3-dimethoxyphenyl)-1-(3-hydroxy-2,2-dimethylpropyl)-2-oxo-1,2,3,5-tetrahydro-4,1-benzoxazepin-3-yl]acetyl]amino]-3-[(1-methylethyl)oxy]-1-benzofuran-2-carboxylic acid]	174.2 to 174.9 °C
CCc1cc(NC(=O)C[C@H]2O[C@H](c3cccc(OC)c3OC)c3cc(Cl)ccc3N(CC(C)(C)CO)C2=O)cc2cc(C(=O)O)oc12 [Example 162, 5-[[2-[(3R,5S)-7-Chloro-5-(2,3-dimethoxyphenyl)-1-(3-hydroxy-2,2-dimethylpropyl)-2-oxo-1,2,3,5-tetrahydro-4,1-benzoxazepin-3-yl]acetyl]amino]-7-ethyl-1-benzofuran-2-carboxylic acid]	188 to 189 °C
COc1cccc([C@H]2O[C@H](CC(=O)Nc3ncc(CC(=O)O)s3)C(=O)N(CC(C)(C)CO)c3ccc(Cl)cc32)c1OC [Example 143, [2-[[[(3R,5S)-7-Chloro-5-(2,3-dimethoxyphenyl)-1-(3-hydroxy-2,2-dimethylpropyl)-2-oxo-1,2,3,5-tetrahydro-4,1-benzoxazepin-3-yl]acetyl]amino]-1,3-thiazol-5-yl]acetic acid]	239 to 241 °C
COc1cccc([C@H]2O[C@H](CC(=O)Nc3ccc(F)c(CCC(=O)O)c3)C(=O)N(CC(C)(C)CO)c3ccc(Cl)cc32)c1OC [Example 134, 3-[5-[[[(3R,5S)-7-Chloro-5-(2,3-dimethoxyphenyl)-1-(3-hydroxy-2,2-dimethylpropyl)-2-oxo-1,2,3,5-tetrahydro-4,1-benzoxazepin-3-yl]acetyl]amino]-2-fluorophenyl]propionic Acid]	123 to 125 °C
CCOc1ccc(CCC(=O)O)cc1NC(=O)C[C@H]1O[C@H](c2cccc(OC)c2OC)c2cc(Cl)ccc2N(CC(C)(C)COC(C)=O)C1=O [Example 50, 3-[3-[[[(3R,5S)-1-(3-acetoxy-2,2-dimethylpropyl)-7-chloro-5-(2,3-dimethoxyphenyl)-2-oxo-1,2,3,5-tetrahydro-4,1-benzoxazepin-3-yl]acetyl]amino]-4-ethoxyphenyl]propionic Acid]	175 to 176 °C
COc1cccc([C@H]2O[C@H](CC(=O)NCCCOc3ccc(CC(=O)O)cc3)C(=O)N(CC(C)(C)CO)c3ccc(Cl)cc32)c1OC [Example 96, 4-[3-[[(3R,5S)-7-Chloro-5-(2,3-dimethoxyphenyl)-1-(3-hydroxy-2,2-dimethylpropyl)-2-oxo-1,2,3,5-tetrahydro-4,1-benzoxazepin-3-yl]acetyl]aminopropyloxy]phenylacetic acid]	125 to 128 °C
COc1cccc([C@H]2O[C@H](CC(=O)Nc3ccc(CCCC(=O)O)cc3)C(=O)N(CC(C)(C)CO)c3ccc(Cl)cc32)c1OC [Example 68, 4-[4-[[[(3R,5S)-7-chloro-5-(2,3-dimethoxyphenyl)-1-(3-hydroxy-2,2-dimethylpropyl)-2-oxo-1,2,3,5-tetrahydro-4,1-benzoxazepin-3-yl]acetyl]amino]phenyl]butanoic acid]	194 to 195 °C
COc1cccc([C@H]2O[C@H](CC(=O)Nc3cc(CCC(=O)O)ccc3OC(C)C)C(=O)N(CC(C)(C)COC(C)=O)c3ccc(Cl)cc32)c1OC [Example 52, 3-[3-[[[(3R,5S)-1-(3-acetoxy-2,2-dimethylpropyl)-7-chloro-5-(2,3-dimethoxyphenyl)-2-oxo-1,2,3,5-tetrahydro-4,1-benzoxazepin-3-yl]acetyl]amino]-4-isopropoxyphenyl]propionic Acid]	101 to 103 °C
COc1ccc(C(=O)O)cc1NC(=O)C[C@H]1O[C@H](c2cccc(OC)c2OC)c2cc(Cl)ccc2N(CC(C)(C)CO)C1=O [Example 102, 3-[[(3R,5S)-7-Chloro-5-(2,3-dimethoxyphenyl)-1-(3-hydroxy-2,2-dimethylpropyl)-2-oxo-1,2,3,5-tetrahydro-4,1-benzoxazepin-3-yl]acetyl]amino-4-methoxybenzoic acid]	171 to 173 °C
COc1cc(CCC(=O)O)cc(NC(=O)C[C@H]2O[C@H](c3cccc(OC)c3OC)c3cc(Cl)ccc3N(CC(C)(C)CO)C2=O)c1OC [Example 66, 3-[5-[[[(3R,5S)-7-chloro-5-(2,3-dimethoxyphenyl)-1-(3-hydroxy-2,2-dimethylpropyl)-2-oxo-1,2,3,5-tetrahydro-4,1-benzoxazepin-3-yl]acetyl]amino]-3,4-dimethoxyphenyl]propionic Acid]	145 to 148 °C
COc1cccc([C@H]2O[C@H](CC(=O)Nc3nc(C(=O)O)cs3)C(=O)N(CC(C)(C)CO)c3ccc(Cl)cc32)c1OC [Example 142, 2-[[[(3R,5S)-7-Chloro-5-(2,3-dimethoxyphenyl)-1-(3-hydroxy-2,2-dimethylpropyl)-2-oxo-1,2,3,5-tetrahydro-4,1-benzoxazepin-3-yl]acetyl]amino]-1,3-thiazole-4-carboxylic acid]	277.3 to 277.9 °C
COc1cccc([C@H]2O[C@H](CC(=O)Nc3cc(C(=O)O)ccc3F)C(=O)N(CC(C)(C)COC(C)=O)c3ccc(Cl)cc32)c1OC [Example 107, 3-[[[(3R,5S)-1-(3-Acetoxy-2,2-dimethylpropyl)-7-chloro-5-(2,3-dimethoxyphenyl)-2-oxo-1,2,3,5-tetrahydro-4,1-benzoxazepin-3-yl]acetyl]amino]-4-fluorobenzoic acid]	146 to 149 °C
COc1cccc([C@H]2O[C@H](CC(=O)Nc3cccc(CCCC(=O)O)c3)C(=O)N(CC(C)(C)CO)c3ccc(Cl)cc32)c1OC [Example 111, 4-[3-[[[(3R,5S)-7-Chloro-5-(2,3-dimethoxyphenyl)-1-(3-hydroxy-2,2-dimethylpropyl)-2-oxo-1,2,3,5-tetrahydro-4,1-benzoxazepin-3-yl]acetyl]amino]phenyl]butanoic acid]	119 to 122 °C
COc1cccc([C@H]2O[C@H](CC(=O)NCc3ccc(C(=O)O)o3)C(=O)N(CC(C)(C)CO)c3ccc(Cl)cc32)c1OC [Example 29, 5-[[[[(3R,5S)-7-chloro-5-(2,3-dimethoxyphenyl)-1-(2,2-dimethyl-3-hydroxypropyl)-2-oxo-1,2,3,5-tetrahydro-4,1-benzoxazepin-3-yl]acetyl]amino]methyl]furan-2-carboxylic acid]	128 to 131 °C
COc1cccc([C@H]2O[C@H](CC(=O)Nc3ccc(OCC(=O)O)cc3F)C(=O)N(CC(C)(C)CO)c3ccc(Cl)cc32)c1OC [Example 136]	192 to 193 °C (dec.)
COc1cccc([C@H]2O[C@H](CC(=O)Nc3cc4c(c(C(=O)O)c3)CCCC4)C(=O)N(CC(C)(C)CO)c3ccc(Cl)cc32)c1OC [Example 112, 3-[[[(3R,5S)-7-Chloro-5-(2,3-dimethoxyphenyl)-1-(3-hydroxy-2,2-dimethylpropyl)-2-oxo-1,2,3,5-tetrahydro-4,1-benzoxazepin-3-yl]acetyl]amino]-5,6,7,8-tetrahydro-1-naphthoic acid]	178 to 179 °C
COc1cccc([C@H]2O[C@H](CC(=O)Nc3cccc(CCCCC(=O)O)c3)C(=O)N(CC(C)(C)CO)c3ccc(Cl)cc32)c1OC [Example 135, 5-[3-[[[(3R,5S)-7-Chloro-5-(2,3-dimethoxyphenyl)-1-(3-hydroxy-2,2-dimethylpropyl)-2-oxo-1,2,3,5-tetrahydro-4,1-benzoxazepin-3-yl]acetyl]amino]phenyl]pentanoic acid]	117 to 119 °C
COc1cccc([C@H]2O[C@H](CC(=O)Nc3cc(OC(C)C)c4oc(C(=O)O)cc4c3)C(=O)N(CC(C)(C)CO)c3ccc(Cl)cc32)c1OC [Example 152, 5-[[[(3R,5S)-7-Chloro-5-(2,3-dimethoxyphenyl)-1-(3-hydroxy-2,2-dimethylpropyl)-2-oxo-1,2,3,5-tetrahydro-4,1-benzoxazepin-3-yl]acetyl]amino]-7-[(1-methylethyl)oxy]-1-benzofuran-2-carboxylic acid]	188.6 to 189.7 °C
